Assay results as given in article PMC8454699, “Structure and function of aerotolerant, multiple-turnover THI4 thiazole synthases” (Biochemical Journal, 2021).

Target: T1, Thermovibrio ammonificans THI4 (TaTHI4) (Thermovibrio ammonificans, UniProt E8T346)
T1 construct: N-terminal His6 tag (pBAD24, recoded gene), E. coli BL21(DE3); homooctamer, four monomers per asymmetric unit; anaerobically reconstituted with Fe(II), NAD+ and glycine
Assay: X-ray crystallography, […] A
Assay type: binding
Conditions: reaction intermediate formed from NAD+ and glycine; Fe(II)-reconstituted, anaerobic; pH 7.5, 22 °C; active site, pincer-type ligand of Fe(II)

**Q.** With `CC(N=CC(=O)O)C(=O)C(O)COP(=O)(O)OP(=O)(O)OC[C@H]1O[C@@H](n2cnc3c(N)ncnc32)[C@H](O)[C@@H]1O` (stereo partly shown) [glycine imine intermediate] as the compound, how does the “X-ray crystallography, 2.3 A” value read?
**A.** Clear density for the TaTHI4 treated with NAD and glycine shows the expected glycine imine
